By EC50 is commonly meant the concentration giving half of the maximal effect.

In the assay the target is Sodium- and chloride-dependent taurine transporter (Homo sapiens) (UniProt P31641). The assay is described as follows: SLC6A6 taurine transporter substrate activity, dose response, cell-based, membrane potential dye, HEK-293, SLC6A6 overexpression (AID 1794824). The conditions noted are these: HEK-293 SLC6A6 OE, FLIPR membrane potential dye.

Each structure is given as a SMILES string.

Sequence of Sodium- and chloride-dependent taurine transporter (Homo sapiens) (P31641 whole entry, looked up): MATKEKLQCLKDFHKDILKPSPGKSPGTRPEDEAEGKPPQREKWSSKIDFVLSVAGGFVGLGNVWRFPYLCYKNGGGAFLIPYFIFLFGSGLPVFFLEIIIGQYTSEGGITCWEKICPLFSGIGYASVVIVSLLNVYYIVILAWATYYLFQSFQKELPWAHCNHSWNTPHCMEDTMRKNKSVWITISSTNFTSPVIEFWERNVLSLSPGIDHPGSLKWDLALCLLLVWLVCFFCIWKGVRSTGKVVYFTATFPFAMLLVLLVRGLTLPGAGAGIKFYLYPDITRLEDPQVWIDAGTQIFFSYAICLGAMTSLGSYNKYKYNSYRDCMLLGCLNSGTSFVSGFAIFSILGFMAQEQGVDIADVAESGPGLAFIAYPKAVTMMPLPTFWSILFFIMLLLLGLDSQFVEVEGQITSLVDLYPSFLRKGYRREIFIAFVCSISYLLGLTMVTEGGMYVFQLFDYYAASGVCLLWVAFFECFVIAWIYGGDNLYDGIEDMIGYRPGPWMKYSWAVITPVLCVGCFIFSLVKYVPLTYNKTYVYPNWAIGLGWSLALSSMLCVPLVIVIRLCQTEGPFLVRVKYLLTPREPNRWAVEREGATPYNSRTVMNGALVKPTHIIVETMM

`NCCS(=O)(=O)O`: the EC50 is 10 µM.

As for `NCCCC(=O)O`, the EC50 was 354 µM.
